Measured values reported in ChEMBL document CHEMBL4138138, “Addressing the Metabolic Stability of Antituberculars through Machine Learning” (ACS Med Chem Lett, 2017).
Values after ≈ are worked out from the molar mass of the structure shown.

Assays:
[1] = Intrinsic clearance in mouse liver microsomes; type: ADME, microsome; settings: read-out: CLH
[2] = Half life in mouse liver microsomes; type: ADME, microsome
[3] = tested on: Mycobacterium tuberculosis; test: Antimycobacterial activity against Mycobacterium tuberculosis H37Rv measured after 1 week by resazurin assay; type: functional; settings: 168 h
[4] = Cytotoxicity against African green monkey Vero cells assessed as reduction in cell viability after 72 hrs by MTS/PMS assay; type: cell-based; settings: chlorocebus sabaeus
[5] = Selectivity index, ratio of CC50 for African green monkey Vero cells to MIC for Mycobacterium tuberculosis H37Rv; type: toxicity; settings: read-out: Selectivity Index

Structure (SMILES) | microsomal CLint [1] [µL/min/mg] | half-life [2] [min] | MIC [3] [µg/mL] | CC50 at 72 h [4] [µg/mL] | selectivity ratio [5]
Cc1ccc(CSc2nc(N)c3c4c(sc3n2)CC(C(C)(C)C)CC4)s1 (configuration not stated) | 21.8 | 31.8 | > 200 | 12.5 (≈ 31 µM) | 
CC(C)(C)C1CCc2c(sc3nc(SCc4cccc([N+](=O)[O-])c4)nc(N)c23)C1 (configuration not stated) | 14.6 | 47.5 | 10 (≈ 23.3 µM) | > 200 | > 20
CC(C)(C)C1CCc2c(sc3nc(SCc4ccnn4C4CCCCO4)nc(N)c23)C1 (configuration not stated) | 11.5 | 60.3 | 25 (≈ 54.6 µM) | 6.2 (≈ 13.5 µM) | 
Cc1ccc(CSc2nc(N)c3c4c(sc3n2)CC(C(C)(C)C)CC4)o1 (configuration not stated) | 35.1 | 19.7 | 200 (≈ 516 µM) | 3.1 (≈ 8 µM) | 
CC(C)(C)C1CCc2c(sc3nc(SCc4ccc(C(=O)O)cc4[N+](=O)[O-])nc(N)c23)C1 (configuration not stated) | 5.8 | 120 | 12.5 to 25 (≈ 26.4 to 52.9 µM) | > 50 | 
CC(C)(C)C1CCc2c(sc3nc(SCc4ccc5c(c4)OCO5)nc(N)c23)C1 (configuration not stated) | 10.8 | 64.2 | > 200 | > 50 | 
COc1ccc([N+](=O)[O-])cc1CSc1nc(N)c2c3c(sc2n1)CC(C(C)(C)C)CC3 (configuration not stated) | 7.9 | 87.7 | > 200 | 12.5 (≈ 27.3 µM) | 
Cc1nc(CSc2nc(N)c3c4c(sc3n2)CC(C(C)(C)C)CC4)sc1C (configuration not stated) | 31.9 | 21.7 | 100 to 200 (≈ 239 to 478 µM) | 1.6 (≈ 3.82 µM) | 
CC(C)(C)C1CCc2c(sc3nc(SCc4cc([N+](=O)[O-])ccc4O)nc(N)c23)C1 (configuration not stated) | 11.9 | 58.2 | 200 (≈ 450 µM) | 50 (≈ 112 µM) | 
CC(C)(C)C1CCc2c(sc3nc(SCc4nccs4)nc(N)c23)C1 (configuration not stated) |  | 66.6 |  |  | 
Cc1cc(CSc2nc(N)c3c4c(sc3n2)CC(C(C)(C)C)CC4)no1 (configuration not stated) |  | 19 |  |  | 
CCOC(=O)CSc1nc(N)c2c3c(sc2n1)CC(C(C)(C)C)CC3 (configuration not stated) | > 1390 | < 1 | 0.19 to 0.38 (≈ 0.501 to 1 µM) | 45 (≈ 119 µM) | 120 to 240
Cc1cccc(CSc2nc(N)c3c4c(sc3n2)CC(C(C)(C)C)CC4)n1 (configuration not stated) | 40.8 | 17 | > 200 | 25 (≈ 62.7 µM) | 
CC(C)(C)C1CCc2c(sc3nc(SCc4ccc(C(=O)O)cc4)nc(N)c23)C1 (configuration not stated) | 7.3 | 95 | 25 to 50 (≈ 58.5 to 117 µM) | 50 (≈ 117 µM) | 
Cn1nccc1CSc1nc(N)c2c3c(sc2n1)CC(C(C)(C)C)CC3 (configuration not stated) | 11.4 | 60.8 | 10 (≈ 25.8 µM) | 100 (≈ 258 µM) | 10
CC(C)(C)C1CCc2c(sc3nc(SCc4ccc([N+](=O)[O-])cc4)nc(N)c23)C1 (configuration not stated) | 20.1 | 34.3 | > 200 | > 50 | 
NNC(=O)c1ccncc1 [ISONIAZID] |  |  | 0.039 (≈ 0.284 µM) |  | 
